BindingDB's records for doi:10.1016/j.bmc.2012.10.010 (National Research Center, 2012)

biological target: Urokinase-type plasminogen activator (Homo sapiens) (UniProt P00749); experiment: Binding affinity to uPA

Ki [pM] | SMILES
3 | N#Cc1cc(-c2ccccc2)n(-c2ccc(Cl)cc2)c1N
3 | N#Cc1cc(-c2ccccc2)n(-c2ccc(Br)cc2)c1N
1 | N#Cc1cc(-c2ccccc2)n(Cc2nc3ccccc3[nH]2)c1N
